In patent publication US20220324835A1 (Nurix Therapeutics, Inc., priority 2018, published 2022):

Tests used:
Format in all cases: cell-based
[1] = system: primary human total T-cells; assay: T-cell activation assessed by cytokine secretion (GM-CSF, IFNγ, TNFα)
From the text: (§1) Peripheral blood mononuclear cells (PBMC) were obtained either: 1) by using Ficoll-Paque™ (GE Healthcare) for separation of peripheral blood hematopoietic cells from buffy coats of healthy human donors; or 2) directly from FeukoPak donations. Total human primary T-cells were isolated from the PMBCs utilizing negative selection with commercial kits following the manufacturer's protocol (Miltenyi Catalog #130-096-535 (i.e., cocktail of antibodies against surface markers CD14, CD15, CD16, CD19, CD34, CD36, CD56, CD123 and CD235a are incubated with the PBMCs before passing the samples by magnetic beads for removal of cells expressing those surface markers) or StemCells Catalog #17951) to yield >95% CD3+ cells as assessed by flow cytometry. For measurement of cell proliferation, cells were labeled with Cell Trace Violet (Invitrogen) following manufacturer's protocol prior to activation by stimulation with anti-CD3 antibody alone or in combination with anti-CD28 antibody. The Cbl-b inhibitor was added to 1×10^5 cells per well at multiple concentrations (e.g., 10 μM, 1.11 μM, or 0.123 μM) with a final DMSO concentration of <0.1%. The plate was incubated for one hour at 37° C. in 5% CO2. Following incubation with the Cbl-b inhibitor, primary human total T-cells were stimulated with either plate bound anti-CD3 antibody (OKT3) alone or plate bound anti-CD3 antibody (OKT3) with soluble anti-CD28 antibody (28.2) (Life Technologies). To prepare plates with plate bound anti-CD3 antibody (OKT3), 96-well round bottom tissue culture plates were coated with 100 μl of anti-CD3 antibody (OKT3) at 10 μg/mL for 4 hours at 37° C. 5% CO2 in phosphate buffered saline (PBS). The plates were washed with PBS prior to adding the cells with or without soluble anti-CD28 antibody (28.2) to each well at a final concentration of 5 μg/mL. Cells were stimulated for 48 hours prior to harvesting the cell free supernatant and staining the cell population for surface marker assessment by flow cytometry. Supernatants were analyzed for cytokine secretion (e.g., GM-CSF, IFNγ and TNFα) by ELISA (R&D Systems, Peprotech or Life Technologies) or Luminex multiplex kits (Procarta Life Technologies) following manufacturer's protocol. Cells were stained with anti-CD69 (BD Biosciences) to assess levels of surface markers of activation. Proliferation was measured by flow cytometry and data was analyzed with FlowJo v7.6.5 or v10. Readouts were reported as fold change over baseline. In some embodiments, baseline was the measurement obtained from total human T-cells stimulated with anti-CD3 antibody alone, wherein the cells were not incubated with a Cbl-b inhibitor. In some embodiments, baseline was the measurement obtained from total human T-cells stimulated with anti-CD3 antibody and anti-CD28 antibody, where the cells were not incubated with a Cbl-b inhibitor.
(§2) Cbl-b inhibitors were tested to determine their ability to induce or enhance secretion of cytokines from T-cells (e.g., GM-CSF, IFNγ and TNFα) and/or surface expression of cell surface markers on T-cells (e.g., CD69) that is indicative of T-cell activation. Cbl-b inhibitors were also tested to determine their ability to induce or enhance T-cell proliferation. Cbl-b inhibitors were tested for their effects on T-cell activation in the presence of costimulation and where conditions were suboptimal for priming.
(§3) Readouts for T-cell activation were reported as fold change over baseline. Baseline for this study was the measurement obtained from total human T-cells stimulated with anti-CD3 antibody alone or anti-CD3 antibody in combination with soluble anti-CD28 antibody, where the cells were not incubated with a Cbl-b inhibitor. For T-cells stimulated with anti-CD3/anti-CD28 or with anti-CD3 alone changes greater than 1,2-fold over baseline for % positive CD69 staining and greater than 2-fold over baseline for % total proliferating cells were considered a significant and positive response (Table 4a). […]

[2] = system: primary human total T-cells; assay: T-cell activation assessed by CD69 expression
From the text: as §1, §2, §3

[3] = system: primary human total T-cells; assay: T-cell activation assessed by cell proliferation (Cell Trace Violet)
From the text: as §1, §2, §3

[4] = CD3/CD28 stimulation, read-out: GM-CSF secretion
[5] = CD3/CD28 stimulation, read-out: IFNγ secretion
[6] = CD3/CD28 stimulation, read-out: TNFα secretion
[7] = CD3 alone stimulation, read-out: GM-CSF secretion
[8] = CD3 alone stimulation, read-out: IFNγ secretion
[9] = CD3 alone stimulation, read-out: TNFα secretion
[10] = CD3/CD28 stimulation, CD4 T-cells, read-out: % CD69+ (CD4)
[11] = CD3/CD28 stimulation, CD8 T-cells, read-out: % CD69+ (CD8)
[12] = CD3 alone stimulation, CD4 T-cells, read-out: % CD69+ (CD4)
[13] = CD3 alone stimulation, CD8 T-cells, read-out: % CD69+ (CD8)
[14] = CD3/CD28 stimulation, CD4 T-cells, read-out: % CP (cell proliferation) (CD4)
[15] = CD3/CD28 stimulation, CD8 T-cells, read-out: % CP (cell proliferation) (CD8)
[16] = CD3 alone stimulation, CD8 T-cells, read-out: % CP (cell proliferation) (CD8)

Structure (SMILES) | fold induction at 1.11 µM [1, 4] | fold induction at 1.11 µM [1, 5] | fold induction at 1.11 µM [1, 6] | fold induction at 10 µM [1, 4] | fold induction at 10 µM [1, 5] | fold induction at 10 µM [1, 6] | fold induction at 1.11 µM [1, 7] | fold induction at 1.11 µM [1, 8] | fold induction at 1.11 µM [1, 9] | fold induction at 10 µM [1, 7] | fold induction at 10 µM [1, 8] | fold induction at 10 µM [1, 9] | fold induction at 1.11 µM [2, 10] | fold induction at 10 µM [2, 10] | fold induction at 1.11 µM [2, 11] | fold induction at 10 µM [2, 11] | fold induction at 1.11 µM [2, 12] | fold induction at 10 µM [2, 12] | fold induction at 1.11 µM [2, 13] | fold induction at 10 µM [2, 13] | also measured
Cc1cc(C(=O)Nc2cccc(C3(Cc4nncn4C)COC3)c2)nc(C2CC2)n1 [Compound 336, 2-cyclopropyl-6-methyl-N-(3-(3-((4-methyl-4H-1,2,4-triazol-3-yl)methyl)oxetan-3-yl)phenyl)pyrimidine-4-carboxamide] | 2.01 to 4 | 2.01 to 3 | 2.01 to 4 | > 4 | > 4 | 2.01 to 4 | 2.01 to 4 | 2.01 to 3 | 1.51 to 2 | 2.01 to 4 | > 4 | 1.51 to 2 | 1.4 to 1.6 | 1.4 to 1.6 | 1.2 to 1.4 | 1.2 to 1.4 | 1.4 to 1.6 | > 1.6 | 1.2 to 1.4 | 1.4 to 1.6 | fold induction at 1.11 µM [3, 14]: > 4; fold induction at 10 µM [3, 14]: > 4; fold induction at 1.11 µM [3, 15]: 3.01 to 4; fold induction at 10 µM [3, 15]: > 4; fold induction at 1.11 µM [3, 16]: > 4; fold induction at 10 µM [3, 16]: > 4
Cc1n[nH]c(C)c1-c1cc2c(c(C(F)(F)F)c1)CN(c1cccc(C3(Cc4nncn4C)COC3)c1)C2=O [Compound 385, 6-(3,5-dimethyl-1H-pyrazol-4-yl)-2-(3-{3-[(4-methyl-4H-1,2,4-triazol-3-yl)methyl]oxetan-3-yl}phenyl)-4-(trifluoromethyl)-2,3-dihydro-1H-isoindol-1-one] | 1.51 to 2 | < 2 | 1.51 to 2 | 2.01 to 4 | > 4 | 2.01 to 4 | 1.51 to 2 | < 2 | ≤ 1.5 | 2.01 to 4 | < 2 | 1.51 to 2 | 1.2 to 1.4 | 1.4 to 1.6 | 1.2 to 1.4 | 1.2 to 1.4 | 1.4 to 1.6 | > 1.6 | 1.2 to 1.4 | 1.4 to 1.6 | fold induction at 1.11 µM [3, 14]: > 4; fold induction at 10 µM [3, 14]: > 4; fold induction at 1.11 µM [3, 15]: 2.01 to 3; fold induction at 10 µM [3, 15]: 3.01 to 4; fold induction at 1.11 µM [3, 16]: 3.01 to 4; fold induction at 10 µM [3, 16]: > 4
C[C@H](Cc1nncn1C)c1cccc(N2Cc3c(cc(CN4CC(O)C4)cc3C(F)(F)F)C2=O)c1 [Compound 393, (R)-6-((3-hydroxyazetidin-1-yl)methyl)-2-(3-(1-(4-methyl-4H-1,2,4-triazol-3-yl)propan-2-yl)phenyl)-4-(trifluoromethyl)isoindolin-1-one] | ≤ 1.5 | 2.01 to 3 | ≤ 1.5 | 1.51 to 2 | > 4 | 1.51 to 2 | ≤ 1.5 | < 2 | ≤ 1.5 | ≤ 1.5 | < 2 | ≤ 1.5 | ≤ 1.2 | 1.2 to 1.4 | ≤ 1.2 | ≤ 1.2 | 1.2 to 1.4 | 1.2 to 1.4 | ≤ 1.2 | ≤ 1.2 | fold induction at 1.11 µM [3, 14]: < 2; fold induction at 10 µM [3, 14]: 3.01 to 4; fold induction at 1.11 µM [3, 15]: < 2; fold induction at 10 µM [3, 15]: 2.01 to 3; fold induction at 1.11 µM [3, 16]: < 2; fold induction at 10 µM [3, 16]: < 2
C[C@H](Cc1nncn1C)c1cccc(N2Cc3c(cc(CN4CC(C)(O)C4)cc3C(F)(F)F)C2=O)c1 [Compound 397] | 2.01 to 4 | 2.01 to 3 | 2.01 to 4 | > 4 | > 4 | 2.01 to 4 | 2.01 to 4 | < 2 | 1.51 to 2 | 2.01 to 4 | < 2 | 1.51 to 2 | 1.4 to 1.6 | 1.4 to 1.6 | 1.2 to 1.4 | 1.2 to 1.4 | > 1.6 | > 1.6 | 1.2 to 1.4 | 1.4 to 1.6 | fold induction at 1.11 µM [3, 14]: > 4; fold induction at 10 µM [3, 14]: > 4; fold induction at 1.11 µM [3, 15]: 3.01 to 4; fold induction at 10 µM [3, 15]: > 4; fold induction at 1.11 µM [3, 16]: > 4; fold induction at 10 µM [3, 16]: > 4
